Source: ChEMBL document CHEMBL3988442, “University of Dundee, Small-Polar-MMV Screening Library” (2021)
“And” between values parts separate entries of the source, which are not always exact repeats. Identical values can stand only once.

Tests used:
[1] = To identify inhibition of the IFN signalling (Jak-Stat) pathway via expression of an eGFP reporter gene under the control of an IFN-stimulated response element (ISRE) containing MxA promoter.; format: functional, Homo sapiens
Schistosoma mansoni = assay: High throughput screening of compounds against Schistosoma mansoni motility; format: functional; set-up: dose or concentration left out as unconfirmed
Histidine--tRNA ligase [2] = biological target: T1, Histidine--tRNA ligase (Leishmania infantum, UniProt A4I591); assay: Leishmania infantum Histidine tRNA synthetase (LdHisRS); format: functional
T1 sequence (A4I591 whole entry): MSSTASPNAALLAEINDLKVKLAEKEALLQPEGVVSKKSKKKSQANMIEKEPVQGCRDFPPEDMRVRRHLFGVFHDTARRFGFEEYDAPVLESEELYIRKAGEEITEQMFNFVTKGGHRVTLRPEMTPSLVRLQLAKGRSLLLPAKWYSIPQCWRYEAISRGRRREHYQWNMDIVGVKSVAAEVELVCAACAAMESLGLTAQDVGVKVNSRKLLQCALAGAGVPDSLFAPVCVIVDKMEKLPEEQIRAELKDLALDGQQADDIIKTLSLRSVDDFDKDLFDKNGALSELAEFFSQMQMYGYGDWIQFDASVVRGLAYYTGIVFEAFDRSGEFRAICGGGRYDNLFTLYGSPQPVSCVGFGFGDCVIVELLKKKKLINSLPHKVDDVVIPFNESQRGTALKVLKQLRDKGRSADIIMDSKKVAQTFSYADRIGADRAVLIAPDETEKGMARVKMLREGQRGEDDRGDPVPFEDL

Leishmania donovani = assay: Leishmania intramacrophage assay; format: functional, organism-based; conditions: for IC50: Leishmania donovani
[3] = biological target: AMP-activated protein kinase, AMPK; assay: AMP-dependent Kinase enzyme assay. An in vitro enzyme assay that detects ADP turnover that is directly proportional to AMPK activity. This uses naive AMPK that is activated during the assay with MK-8722; format: functional, Homo sapiens
Trypanosoma brucei = assay: Trypanosoma brucei 72 hour study; format: functional, organism-based
[4] = microbe, parasite or virus in culture; conditions: Mycobacterium tuberculosis, 96 h, read-out: pIC50 (converted)
[5] = microbe, parasite or virus in culture; conditions: Mycobacterium tuberculosis, 72 h, read-out: pIC50 (converted)
[6] = biological target: T2, Ubiquitin-activating enzyme e1, putative (Leishmania donovani (strain BPK282A1), UniProt E9BSI1); assay: Leishmania donovani Ubiquitin Activating Enzyme (LdE1); format: functional
T2 sequence (E9BSI1 whole entry): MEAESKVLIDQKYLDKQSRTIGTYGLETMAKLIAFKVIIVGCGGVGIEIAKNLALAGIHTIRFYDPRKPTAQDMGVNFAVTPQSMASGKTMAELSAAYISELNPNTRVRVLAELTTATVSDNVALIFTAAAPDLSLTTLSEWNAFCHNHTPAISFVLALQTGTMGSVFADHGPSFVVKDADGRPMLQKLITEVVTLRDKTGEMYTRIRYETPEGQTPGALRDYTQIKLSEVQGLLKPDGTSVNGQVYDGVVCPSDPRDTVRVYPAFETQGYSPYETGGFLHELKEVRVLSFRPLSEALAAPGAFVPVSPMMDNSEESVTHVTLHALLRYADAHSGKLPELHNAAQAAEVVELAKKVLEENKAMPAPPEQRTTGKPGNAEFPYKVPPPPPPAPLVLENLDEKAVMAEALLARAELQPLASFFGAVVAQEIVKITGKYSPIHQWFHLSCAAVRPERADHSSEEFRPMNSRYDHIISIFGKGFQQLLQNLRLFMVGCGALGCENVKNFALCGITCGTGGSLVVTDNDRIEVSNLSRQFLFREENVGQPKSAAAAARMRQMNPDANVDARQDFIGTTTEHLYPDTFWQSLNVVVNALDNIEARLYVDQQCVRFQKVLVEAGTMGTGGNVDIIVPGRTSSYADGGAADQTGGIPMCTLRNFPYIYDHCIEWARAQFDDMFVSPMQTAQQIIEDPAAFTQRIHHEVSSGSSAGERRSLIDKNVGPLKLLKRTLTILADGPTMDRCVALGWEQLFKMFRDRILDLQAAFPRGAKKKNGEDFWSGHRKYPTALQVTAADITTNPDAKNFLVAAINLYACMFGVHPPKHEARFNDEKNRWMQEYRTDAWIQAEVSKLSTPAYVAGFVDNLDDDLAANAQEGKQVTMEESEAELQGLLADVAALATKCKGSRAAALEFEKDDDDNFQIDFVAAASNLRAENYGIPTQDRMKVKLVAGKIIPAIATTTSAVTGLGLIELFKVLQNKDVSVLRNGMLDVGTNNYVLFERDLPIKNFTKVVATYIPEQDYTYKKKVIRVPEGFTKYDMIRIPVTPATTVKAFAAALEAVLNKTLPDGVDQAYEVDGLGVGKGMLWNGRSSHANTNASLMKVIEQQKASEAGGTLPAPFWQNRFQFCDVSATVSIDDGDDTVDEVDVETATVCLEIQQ

Lysine--tRNA ligase = Lysine--tRNA ligase (Plasmodium falciparum (isolate 3D7), UniProt Q8IDJ8); assay: Pf-KRS-1 (Lysyl-RNA Synthetase-1, KRS-1, cytosolic KRS) from Plasmodium falciparum. Inhibitor assay, 384 well plate, luminescence read.; format: functional
Sequence of Lysine--tRNA ligase (Q8IDJ8 whole entry): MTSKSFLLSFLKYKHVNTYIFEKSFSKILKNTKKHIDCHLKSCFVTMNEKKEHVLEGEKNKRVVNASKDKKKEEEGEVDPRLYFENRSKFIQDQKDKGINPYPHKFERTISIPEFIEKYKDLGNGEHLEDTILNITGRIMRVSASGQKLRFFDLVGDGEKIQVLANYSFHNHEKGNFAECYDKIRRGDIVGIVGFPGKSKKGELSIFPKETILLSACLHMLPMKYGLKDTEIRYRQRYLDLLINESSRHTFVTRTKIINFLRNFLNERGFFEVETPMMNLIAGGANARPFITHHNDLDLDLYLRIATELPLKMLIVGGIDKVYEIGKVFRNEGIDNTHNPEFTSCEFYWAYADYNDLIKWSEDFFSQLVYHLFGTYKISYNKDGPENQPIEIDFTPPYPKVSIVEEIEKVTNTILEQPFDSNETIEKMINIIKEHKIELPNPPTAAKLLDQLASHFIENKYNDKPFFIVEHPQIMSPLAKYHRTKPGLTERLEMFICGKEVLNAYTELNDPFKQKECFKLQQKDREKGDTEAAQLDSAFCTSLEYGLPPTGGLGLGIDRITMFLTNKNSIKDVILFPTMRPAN

Histidine--tRNA ligase [7] = biological target: T3, Histidine--tRNA ligase (Trypanosoma cruzi (strain CL Brener), UniProt Q4DA54); assay: Trypanosoma cruzi histidyl tRNA synthetase (Tc-HisRS); format: functional
T3 sequence (Q4DA54 whole entry): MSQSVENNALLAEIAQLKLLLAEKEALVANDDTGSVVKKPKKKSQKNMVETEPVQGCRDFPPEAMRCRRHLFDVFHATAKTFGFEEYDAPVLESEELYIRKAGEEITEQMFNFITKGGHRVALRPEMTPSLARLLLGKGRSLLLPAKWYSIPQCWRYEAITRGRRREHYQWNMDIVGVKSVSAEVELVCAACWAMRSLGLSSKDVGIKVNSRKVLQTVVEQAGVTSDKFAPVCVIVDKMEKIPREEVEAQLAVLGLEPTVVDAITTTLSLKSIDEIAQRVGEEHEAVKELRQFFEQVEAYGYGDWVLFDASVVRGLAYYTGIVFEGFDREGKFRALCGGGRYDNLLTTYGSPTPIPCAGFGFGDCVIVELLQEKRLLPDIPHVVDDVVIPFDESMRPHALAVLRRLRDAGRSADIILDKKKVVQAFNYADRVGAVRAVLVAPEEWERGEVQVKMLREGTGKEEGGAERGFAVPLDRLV

Compound | pIC50 [1] | other results
COC(=O)c1ccc(S(=O)(=O)NCc2cccnc2N(C)C)cc1 | 4.637 and 5.104 | –
COc1cc(CN(C)C(=O)Cc2c(C)nn(C)c2C)ccc1OC(F)F | 5.786 [middle of 4 runs] | Percent Effect (Schistosoma mansoni): -34.16%
Cn1cc(-c2csc(N3CCN(C(=O)OC(C)(C)C)CC3)n2)cn1 | 4.669 and 4.891 | Percent Effect (Schistosoma mansoni): -8.994%
Cc1ccc(C(=O)Nc2cc(C(C)C)n[nH]2)cn1 | 4.606 and 4.922 | –
CN(Cc1ccco1)[C@@H]1CN(C(=O)c2ccnnc2)[C@@H]2CCCO[C@H]12.O=C(O)C(F)(F)F | < 4.21 | –
O=C(C1CCN(c2snc3ccccc23)CC1)N1CCCCCC1 | 4.575 and 4.655 | –
Cc1nc(CCNC(=O)NCc2ccc(N(C)C)nc2)cs1 | < 4.21 | –
CCc1ccc(CN2C[C@@H]3OCCN(c4ccnc(N(C)C)n4)[C@@H]3C2)o1.O=C(O)C(F)(F)F | 5.071 and 5.204 | –
CCC(C)NC(=O)NCCCn1nc2ccccn2c1=O (stereo unspecified) | < 4.21 | IC50 (Histidine--tRNA ligase [2]): > 100 µM
CC(=O)c1ccc(N2CCCC(CO)(CCOc3ccccc3)C2)nc1 (stereo unspecified) | 4.524 and 4.702 | –
CC(=O)N1C[C@@H](c2ccsc2)[C@@H]2CN(Cc3cccc(Cl)c3)CC[C@@H]21 | 4.483 and 4.43 | –
Cc1cc(CN2CCCC2c2noc(C3CC3)n2)c2ccccc2n1 (stereo unspecified) | 5.12 and 5.038 | –
Cc1n[nH]cc1CNc1ccc2c(c1)CN(C(=O)OC(C)(C)C)CC2 | 4.816 and 4.848 | –
COc1cccc(CNc2cnn(C)c(=O)c2Cl)c1 | 4.709 and 5.107 | –
CCc1nc(CN2CCN(c3ncnc4cc(F)ccc34)CC2)no1 | 5.76 [middle of 4 runs] | –
Cc1cc(-c2cnc(NCc3cccnc3)nc2C(C)C)on1 | 4.396 and 4.538 | –
CC(C)c1nc(C2CCCN(C(=O)CCCn3cncn3)C2)no1 (stereo unspecified) | < 4.21 | –
CCn1c(C2CCCN(Cc3nccn3CCOC)C2)nn(C)c1=O (stereo unspecified) | < 4.21 | –
Cc1cnn(CC2CN(c3ncnc4ccsc34)CCO2)c1 (stereo unspecified) | 5.764 [middle of 4 runs] | IC50 (Leishmania donovani): > 50.1 µM
Cc1ccc(CC(=O)Nc2cc(C(C)C)n[nH]2)cn1 | – | pIC50 (Leishmania donovani): 4.917; IC50 (Leishmania donovani): 11.7 µM; pIC50 [3]: < 4; pIC50 (Trypanosoma brucei): 4.869 and 4.956; IC50 (Trypanosoma brucei; Trypanosoma brucei, 72 h): 12.7 µM
O=C(O)C(F)(F)F.O=C(c1ncccn1)N1C[C@H]2CCC[C@@]2(COCc2cccnc2)C1 | < 4.21 | –
Cc1ccc(S(=O)(=O)N2C[C@H]3C[C@H](NC(=O)c4ccnn4C)[C@H]3C2)cc1 | 5.601 and 5.47 and 5.597 and 5.592 | –
CCn1ncc2c1CCCC2NCc1cc(Cl)c(OC)c(OC)c1 (stereo unspecified) | 4.746 and 4.672 | –
CC(=O)c1c(F)cccc1N1CCC(Cc2cccnc2)CC1 | 5.268 and 5.138 | –
O=C(O)C(F)(F)F.O=C(O)C(F)(F)F.O=C(O)C(F)(F)F.c1ccc(CO[C@@H]2CO[C@@]3(CCN(Cc4ccccn4)C3)C2)nc1 | < 4.21 | –
CCS(=O)(=O)N1CCc2ccc(NC(=O)Nc3cccc(SC)c3)cc21 | 5.726 [middle of 4 runs] | –
CC(C)N(CC(N)=O)Cc1csc(COc2ccc(F)cc2)n1 | 5.121 and 5.081 | –
Cc1nc(C)n(CC2CCCN(c3ncnc4sccc34)C2)n1 (stereo unspecified) | 5.597 and 5.199 | –

Compound | pIC50 [1] | other results
Nc1nccc(-c2c[nH]nc2C2CCCCC2)n1 | 4.943 and 4.951 | –
CN(C)c1ccc(CCCNC(=O)Nc2ccc(C#N)cc2)cc1 | 4.654 and 4.645 | –
CC(C)(C)C(=O)N1C[C@H](c2ccsc2)[C@H]2CN(Cc3cccs3)CC[C@H]21.Cl | 4.58 and 4.539 | –
Clc1ccc2cccnc2c1CN1CCCC1Cn1cncn1 (stereo unspecified) | 4.696 and 4.448 | –
COc1ccc(C)cc1CN1CCCC1c1noc(C2CC2)n1 (stereo unspecified) | 4.543 and 4.502 | –
CCS(=O)(=O)N1CCCc2ccc(NC(=O)Cc3ccc(F)cc3)cc21 | 4.555 and 4.597 | –
CN1C(=O)C(C)(C)COc2cc(NS(=O)(=O)Cc3ccccc3)ccc21 | < 4.21 and 4.593 | Percent Effect (Schistosoma mansoni): 31.95%
Cc1cc(-c2cnc(N3CCCC(C)C3)nc2-c2cccnc2C)on1.Cl (stereo unspecified) | 4.421 and 4.521 | –
COc1cccc(CN2CCN(c3ccc4nncn4n3)C(C)C2)c1 (stereo unspecified) | 4.923 and 4.922 | –
Cc1nc(C)n(C2CCCN(C(=O)c3ccc(N(C)C)nn3)C2)n1 (stereo unspecified) | < 4.21 | –
COc1ccc(-c2nnc(SC(C)C(=O)NC3CC3)[nH]2)c(OC)c1 (stereo unspecified) | 4.665 and 4.584 | –
COCC1c2c(cnn2CC2CC2)CCN1Cc1ccc(OC)cc1 (stereo unspecified) | 5.287 and 5.465 | –
CC(C)(O)C1CCN(C(=O)Nc2nc(-c3ccccc3)ns2)CC1 | 4.605 and 4.639 | –
OCC1CCCN1c1cc(NCc2ccc(Cl)s2)ncn1 (stereo unspecified) | 4.462 and 4.49 | –
c1cnn(CC2CN(c3ncnc4ccsc34)CCO2)c1 (stereo unspecified) | 4.809 and 4.868 | –
O=C1NCCN1C1CCCN(Cc2coc(-c3ccc(F)cc3)n2)C1 (stereo unspecified) | 4.93 and 4.918 | –
CC(C)c1nnc2ccc(N3CCC(C(=O)Nc4nccs4)CC3)nn12 | 5 and 4.933 | –
COc1ncccc1NC(=O)N(Cc1ccc(C)o1)C1CC1 | 4.53 and 4.637 | –
Cc1noc(NC(=O)c2ccc(C)c(F)c2)n1 | 4.682 and < 4.57 | IC50 [4]: 27.1 µM; IC50 [5]: 30.5 µM
CC(C)c1n[nH]c(C(=O)Nc2ccncc2)c1Br | 4.519 and 4.533 | IC50 (Leishmania donovani): > 50.1 µM
CC(C)c1nc2n(n1)CC(NCc1nnc(C(C)C)o1)CC2 (stereo unspecified) | – | IC50 [6]: > 100 µM; pIC50 [3]: < 4
CC(C)N1Cc2c(C(=O)N3CCOCC3)nn(C)c2C1.O=C(O)C(F)(F)F.O=C(O)C(F)(F)F | < 4.21 | –
CC(C)C1CCCN1C(=O)Nc1ccc(=O)n(C)c1 (stereo unspecified) | – | IC50 (Lysine--tRNA ligase): > 50.1 µM; pIC50 [3]: < 4; IC50 (Histidine--tRNA ligase [7]): 19 µM and 22.3 µM; IC50 (Histidine--tRNA ligase [2]): 1.01 µM and 1.02 µM and 2.81 µM and 2.75 µM
Cc1nc(C)n(CC2CCCN(c3ncnc4c3CCC4)C2)n1 (stereo unspecified) | 5.177 and 5.243 | –
CS(=O)(=O)c1ccc(NC(=O)N2CCc3sccc3C2)cn1 | 4.408 and 4.389 | –
O=C(Cc1noc2ccccc12)N1CCCC1c1noc(C2CC2)n1 (stereo unspecified) | 4.845 and 4.787 | –
c1cnn(CC2CCCN2c2ncnc3sccc23)c1 (stereo unspecified) | 5.137 and 5.086 | –
